Marks after values point to notes of the source that are not given here.
How the values were obtained:
[1] = Blood (serum) analysis, Example B6; format: in vivo, mouse; details: 14th day after operation, high-fat diet
Experimental: Each C57BL/6J (SLC, male, 7 weeks old) was allowed to freely eat High-Fat Diets with 60 cal % Fat (Research Diets, Inc.) and freely drink tap water. The body weight was measured every week. After 10 weeks, the mice were divided into 4 groups such that the average body weight was equivalent among the groups (n=8). The breeding environment was set to room temperature of 23±2° C., a humidity of 55±10%, and a light period of 7 a.m. to 7 p.m.
A 1/13 diluted solution of Somnopentyl was intraperitoneally administered at 10 mL/kg body weight, and then, an analgesic pentazocine was subcutaneously injected at 1 mg/kg body weight. After shaving of the back, an osmotic pump Alzet (DURECT Corp.) filled with the agents given below was implanted to thereby continuously administer the agents.
Group 2: PPARγ activator (rosiglitazone (Rosi); 5 mg/kg body weight/day)+Smad3 inhibitor (SIS3; 5 mg/kg body weight/day)
Group 3; β3 adrenaline receptor activator (CL316,243; 0.1 mg/kg body weight/day)
Group 4; PPARγ activator (rosiglitazone (Rosi); 5 mg/kg body weight/day)+Smad3 inhibitor (SIS3; 5 mg/kg body weight/day)+β3 adrenaline receptor activator (CL316,243; 0.1 mg/kg body weight/day)
Anatomy was performed on the 14th day after the operation. Blood was collected from the abdominal vena cava under isoflurane anesthesia. Then, each tissue shown below was collected and the weight of the tissue was measured. The significant difference was tested using a multiple comparison test by the Turkey-Kramer method (different letters indicate significant difference with P<0.05).
Serum from the blood obtained by the anatomy described above was subjected to componential analysis using commercially available measurement kits described below.
Adiponectin: adiponectin ELISA kit (Otsuka Pharmaceutical Co., Ltd.)
Insulin: insulin measurement kit (Morinaga Institute of Biological Science, Inc.)
Glucose: N-Assay Glu-UL (Nittobo Medical Co., Ltd.)
Total cholesterol: N-Assay L T-CHO-H (Nittobo Medical Co., Ltd.)
Triglyceride: N-Assay TG-H (Nittobo Medical Co., Ltd.)
NEFA: NEFA-HA Test Wako (Wako Pure Chemical Industries, Ltd.)

[2] = tested on: UCP-1; assay: UCP-1 expression-inducing action in rat preadipocytes (quantitative PCR), Example B1; format: cell-based
Experimental: The abdominal subcutaneous fat tissues of a Wistar-rat (male, 8 weeks old) were chopped with a surgical knife in a collagenase buffer (0.05% collagenase+4% BSA in Hank's buffer), and then, the chopped tissues were incubated at 37° C. for 15 minutes while shaken. After addition of an appropriate amount of a medium (high glucose DMEM (Invitrogen Corp.)+10% fetal, bovine serum (FBS) (AusGeneX PTY LTD.)+100 units/mL penicillin+[…] streptomycin (Invitrogen Corp.)), the obtained cell suspension was centrifuged at 1,000 rpm for 5 minutes. The supernatant was removed to obtain pellets (SVF: stromal vascular fraction). The SVF was suspended in a DMEM (+10% FBS+penicillin+streptomycin) medium, inoculated to a T-175 flask, cultured for 4 days, and used as preadipocytes.
The preadipocytes were inoculated to a 12-well plate coated with type I collagen. On the next day, the PPARγ activator (rosiglitazone (Rosi) (Wako Pure Chemical Industries, Ltd.), final concentration: 1 μM) and/or the Smad3 inhibitor (SIS3 (Sigma-Aldrich Corp.), final concentration: 10 μM) was added thereto. After culture for 7 days, the β3 adrenaline receptor activator (norepinephrine (NE) (Wako Pure Chemical Industries, Ltd.), final concentration: 1 μM)) was added thereto, and the cells were cultured for 2 hours, then washed with PBS, and recovered.
Total RNA was extracted according to a standard method using RNeasy Mini Kit (Qiagen N.V.). The total RNA was reverse-transcribed according to a standard method using High Capacity RNA-to-cDNA Kit (Applied Biosystems by Life Technologies).
Quantitative PCR was performed with the obtained cDNA (30 ng/well) as a template using 7500 Fast Real-Time PCR System (Applied Biosystems by Life Technologies). The expression level of each gene was corrected with a 36B4 gene expression level as an internal standard. Control excluded the agents described above.
(§1) The preadipocytes (n=3) obtained as described above were inoculated to a 12-well plate coated with type I collagen. On the next day, the PPARγ activator (rosiglitazone (Rosi) (Wako Pure Chemical Industries, Ltd.) or pioglitazone (Wako Pure Chemical Industries, Ltd.); 1 μM) and the Smad3 inhibitor (SIS3 (Sigma-Aldrich Corp.), 10 μM) were added thereto. After culture for 7 days, the cells were treated with the β3 adrenaline receptor activator (norepinephrine (Wako Pure Chemical Industries, Ltd.), 1 μM) for 2 hours and then recovered.
The preadipocytes were collected by trypsin treatment and transfected with siRNA against each Smad by electroporation using Neon transfection System. (Invitrogen Corp.). The preadipocytes (3×10^5 cells) were transfected with 50 pmol of the siRNA (Life Technologies) under conditions of 1150 V/20 ms/3 pulses, suspended in a DMEM (+10% FBS+100 units/mL penicillin+[…] streptomycin) medium, and then inoculated to a 12-well plate coated with type I collagen. After 6 hours, rosiglitazone was added thereto, and the cells were cultured with the medium replaced with fresh one every day. Four days after the inoculation, the cells were treated with norepinephrine for 2 hours and then recovered, and the UCP-1 expression level was analyzed by using RT-PCR. For a control, rosiglitazone, SIS3, and norepinephrine were added in the same approach as above to cells transfected with random siRNA, followed by analysis.
as §1, with “Ltd.), 10” for “Ltd.) or pioglitazone (Wako Pure Chemical Industries, Ltd.); 1”, “Corp.) or SB431542 (Sigma-Aldrich Corp.);” for “Corp.),”
The preadipocytes (n=3) were inoculated to a 12-well plate coated with type I collagen. […]

[3] = target: T1, human TGR5 (Homo sapiens, UniProt Q8TDU6); assay: TGR5-activating action, CRE luciferase reporter in HEK293 cells, Reference Example 3; format: cell-based; details: material 0.001%, 12 to 18 hours; relative to control defined as 1; FIG. 22
T1 construct: expressed in transfected cells; host or cells: HEK293
T1 sequence (Q8TDU6 1-330): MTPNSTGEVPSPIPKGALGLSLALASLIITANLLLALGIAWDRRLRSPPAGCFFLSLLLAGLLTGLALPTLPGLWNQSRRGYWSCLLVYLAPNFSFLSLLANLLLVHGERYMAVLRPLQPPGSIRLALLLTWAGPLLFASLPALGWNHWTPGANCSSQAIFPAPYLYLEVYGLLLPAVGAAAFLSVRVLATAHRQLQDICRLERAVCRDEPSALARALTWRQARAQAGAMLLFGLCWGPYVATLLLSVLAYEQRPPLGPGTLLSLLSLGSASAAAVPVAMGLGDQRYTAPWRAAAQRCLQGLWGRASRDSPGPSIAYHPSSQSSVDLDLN
Experimental: HEK293 cells were inoculated at 1.0×10^5 cells/well to a 24-well plate and cultured in a DMEM medium containing 5% charcoal-treated FBS for 1 day. Then, the cells were transfected with 200 ng/well of a firefly luciferase reporter vector pGL4.29[luc2P/CRE/Hygro](Promega Corp.) containing a cAMP-responsive element (CRE), 40 ng/well of a human TGR5 expression vector hTGR5 (pcDNA3.1+), and 80 ng/well of phRL-TK (Renilla luciferase vector for gene, transfection efficiency correction) using Superfect transfection reagent (Qiagen N.V.). After 3 hours, the medium was replaced with a DMEM medium containing 5% charcoal-treated […]. After another 4 hours, each material shown in Table 4 below was added thereto at a final concentration of 0.001%. 12 to 18 hours thereafter, the luciferase activities were measured using DualGlo luciferase assay system (Promega Corp.). The TGR5-activating action was evaluated by correcting the firefly luciferase activity with the Renilla luciferase activity. The TGR5-activating action was indicated by relative values to the TGR5 activity in a control defined as 1.

[4] = tested on: Smad3; assay: TGF-β stimulation-responsive Smad3 phosphorylation in HEK293 cells (Western blotting), Reference Example 1; format: cell-based; details: material 0.002% (luteolin 2 μM) or 0.01% (luteolin 10 μM), 2 hours, then 0.03 μg/mL TGF-β 20 minutes, FIG. 20
Experimental: HEK293 cells were inoculated at 3×10^5 cells/well to a 6-well dish and cultured overnight in DMEM containing 5% charcoal-treated FBS. On the next day, the medium was replaced with serum-free DMEM supplemented with each material shown in Table 2 below at a final concentration of 0.002% (luteolin: 2 μM) (low-concentration sample) or a final concentration of 0.01% (luteolin: 10 μM) (high-concentration sample). After 2 hours, 0.03 μg/mL TGF-β was added to each well, and the cells were incubated for 20 minutes. After removal of the medium, the resulting cells were washed with PBS and then recovered. The recovered cells were added with Lysis buffer and well homogenized. The cells were left to stand for 15 minutes on ice and then ultrasonically disrupted, and a supernatant centrifuged at 12,000 rpm at 4° C. for 10 minutes was obtained as a protein solution. A prepared sample containing […] of the protein and a ¼ volume of 4×SDS Sample buffer (Novagen) per lane was thermally denatured at 95° C. for 5 minutes and then used in SDS-PAGE. The protein was transferred to Immun-Blot™ PVDF Membrane (Bio-Red Laboratories, Inc.) and subjected to blocking and antibody reaction by the procedures given below, and α-Tubulin and Smad3 were detected together using ECL prime western blotting detection system (Amersham plc). […]

[5] = Smad3 inhibitor 10 μM with rosiglitazone 10 μM (7 days) and norepinephrine 1 μM (2 hours), FIG. 8
[6] = β3 adrenaline receptor activator 1 μM for 2 hours added to rosiglitazone 1 μM and SIS3 10 μM (7 days), FIG. 9
[7] = PPARγ activator 1 μM added to SIS3 10 μM (7 days) and norepinephrine 1 μM (2 hours), FIG. 6

For `C[C@H](Cc1ccc2c(c1)OC(C(=O)[O-])(C(=O)[O-])O2)NC[C@H](O)c1cccc(Cl)c1.[Na+].[Na+]` [CL316,243], which Glucose [1] is on record?
The Glucose was 274.9 ± 19.6^a mg/dl.

What about the Insunlin [1] of the same compound?
The Insunlin was 3.05 ± 0.30^ab ng/ml.

And the NEFA [1]?
Its NEFA is 0.92 ± 0.09^a mEq/l.

And the Total cholesterol [1]?
The Total cholesterol was 151.1 ± 4.8^ac mg/dl.

And the Triglyceride [1]?
The Triglyceride was 77.2 ± 7.8^ab mg/dl.

And the Adiponectin ([1]; Rosi 5, SIS3 5, CL316,243 0.1 mg/kg body weight/day)?
The Adiponectin was 36.9 ± 6.9^ab μg/ml.

Which “expression level of UCP-1” value [2, 5] does the source give for `NC(=O)c1ccc(-c2nc(-c3ccc4c(c3)OCO4)c(-c3ccccn3)[nH]2)cc1` [SB431542] here?
The value was “synergistically increased”.

With `COc1cc2c(cc1OC)CN(C(=O)/C=C/c1c(-c3ccccc3)n(C)c3ncccc13)CC2` [SIS3, 6,7-dimethoxy-2-((2E)-3-(1-methyl-2-phenyl-1H-pyrrolo[2,3-b]pyridin-3-yl-prop-2-enoyl))-1,2,3,4-tetrahydroisoquinoline] as the compound, how does the “expression level of UCP-1” value [2, 5] read?
The value was “synergistically increased”.

For `C[C@H](CCC(=O)O)[C@H]1CC[C@H]2[C@@H]3[C@H](O)C[C@@H]4C[C@H](O)CC[C@]4(C)[C@H]3C[C@H](O)[C@]12C` [cholic acid], which TGR5-activating action [3] is on record?
The TGR5-activating action was “confirmed to have a TGR5-activating action”.

Which TGR5-activating action [3] does the source give for `CCCCC[C@H](O)CC(=O)CCc1ccc(O)c(OC)c1` [gingerol] here?
Its TGR5-activating action is “confirmed to have a TGR5-activating action”.

Which “TGF-β stimulation-responsive Smad3 hyperphosphorylation (Smad3-inhibiting action)” value [4] does the source give for `O=c1cc(-c2ccc(O)c(O)c2)oc2cc(O)cc(O)c12` [luteolin] here?
The value was “confirmed to have a Smad3-inhibiting action”.

For `Nc1nc(CC(=O)Nc2ccc(CCNC[C@H](O)c3ccccc3)cc2)cs1` [mirabegron], which “expression level of UCP-1” value [2, 6] is on record?
Its value is “synergistically increased”.

With `NC[C@H](O)c1ccc(O)c(O)c1` [norepinephrine] as the compound, how does the “expression level of UCP-1” value [2, 6] read?
The value was “synergistically increased”.

With `CCc1ccc(CCOc2ccc(CC3SC(=O)NC3=O)cc2)nc1` (stereo not drawn) [pioglitazone] as the compound, how does the “expression level of UCP-1” value [2, 7] read?
The value was “synergistically increased”.

With `CN(CCOc1ccc(CC2SC(=O)NC2=O)cc1)c1ccccn1` (stereo not drawn) [rosiglitazone] as the compound, how does the “expression level of UCP-1” value [2, 7] read?
Its value is “synergistically increased”.
